Source: patent US10189791B2, “Pyridyl analogs of 1-(2-cyano-3,12-dioxooleana-1,9(11)dien-28-oyl) imidazole” (Trustees of Dartmouth College, priority 2014, dated 2019)
Where two headings read alike, the source gives them in different places.

How the values were obtained:
[1] = Stability in human plasma at 37° C. (LC-MS); format: in vitro ADME; settings: for percent of starting material remaining in plasma: after a 1-hour incubation; for stability in human plasma (in words): up to 6 hours
Protocol: Since CDDO-Im is not stable in human plasma, the stability of the CDDO-Im analogs was determined. Compounds were incubated in human plasma at 37° C. for up to 6 hours. The compounds were extracted with acetonitrile at six different time points (0, 0.5, 1, 2, 4 and 6 hours), centrifuged, and the percent of starting material remaining in the supernatant was measured by liquid chromatography-mass spectrometry (LC-MS). […] The concentrations then decreased gradually over 6 hours. […] Unexpectedly, the CDDO-Im analogs are metabolized differently from CCDO-Im, as no traces of CDDO were detected with any of the other compounds at any time point. Instead, an oxidized derivative was detected on the chromatogram, in the form of an adduct on the molecule of +16 in MW (N-oxide).

U937 leukemia cell line = assay: U937 monocytic differentiation assay (CD11b surface marker, flow cytometry); format: cell-based; settings: for activity to induce differentiation of U937 cells (in words): 4 days
Protocol: CDDO-Im 1 is a potent inducer of differentiation in U937 cells (Place, et al. (2003) Clin. Cancer Res. 9:2798-2806). Therefore, the activity of the CDDO-Im analogs was evaluated using the U937 leukemia cell line. CD11b (also known as Mac-1α or CR3 complement receptor) was used as a surface marker of monocytic differentiation, and its expression was measured by flow cytometry after 4 days of treatment with CDDO-Phenyl-Im 2, CDDO-3P-Im 3, CDDO-2P-Im 4, CDDO-4P-Im 5, CDDO-Im 1 (as positive control) or vehicle (DMSO). […] Indeed, the highest level of differentiation was obtained using 100 nM of CDDO-2P-Im (approximately a 4-fold induction of CD11b).

[2] = system: RA W264.7 macrophage-like cells; assay: Inhibition of IFNγ-stimulated nitric oxide release (Griess reaction); format: cell-based; settings: 10 ng/ml IFNγ, 24 hour exposure, read-out: IC50 (nM) Mean ± SE, NO production
Protocol: Because oxidative and inflammatory stress contribute to carcinogenesis (Albini & Sporn (2007) Nature Rev. Cancer 7:139-147), it was determined whether the pyridine analogues could block de novo synthesis of inducible nitric oxide synthase (iNOS), a critical enzyme involved in the inflammatory response (Kroncke, et al. (1998) Clin. Exp. Immunol. 113:147-156; Zamora, et al. (2000) Mol. Med. 6:347-373). Nitric oxide release was determined in RA W264.7 macrophage-like cells, after stimulation with 10 ng/ml interferon-γ (IFNγ) and a 24 hour-exposure to each compound at 0.625, 1.3, 2.5, 5, 10 and 20 nM. NO release was measured by Griess reaction and compared to CDDO-Im, which is a potent suppressor of iNOS (Place, et al. (2003) Clin. Cancer Res. […]:2798-2806).

HO-1 = assay: Induction of HO-1 mRNA in mouse liver, kidney and lung (real-time PCR); format: in vivo, mice; settings: for HO-1 level relative to CDDO-Im / HO-1 mRNA fold induction compared to the vehicle control: liver; for HO-1 mRNA fold induction compared to the vehicle control: six hours after gavage with 1 μmole; for HO-1 induction (in words): kidney
Source text: (§1) FIG. 2A and FIG. 2B show the induction of cytoprotective enzyme expression in mouse liver, kidney and lung. CB57BL/6 mice were gavaged with 1 μmole of each triterpenoid. Six hours later, organs were harvested, RNA was extracted, and mRNA levels for HO-1 (FIG. 2A) and NQO1 (FIG. 2B) were quantified by real-time PCR analysis. Results are presented as the fold induction for each compound compared to the vehicle (DMSO) control. Data are presented as mean±SE of six mice per group.
Synthetic triterpenoids such as CDDO-Im strongly activate the Nrf2/ARE pathway; Nrf2 is a transcription factor that regulates numerous cytoprotective and anti-inflammatory genes (Liby, et al. (2005) Cancer Res. 65:4789-98; Yates, et al. (2007) Mol. Cancer Therapeut. 6:154-62). Therefore, the ability of the new pyridine compounds to induce transcription of the Nrf2 target genes HO-1 and NQ01 in vivo was assessed. […] In the liver, CDDO-3P-Im and CDDO-2P-Im induced high levels of HO-1, which were about 3 times more elevated than with CDDO-Im (13.4- and 15.2-fold, respectively vs. 4.9-fold for CDDO-Im). […] The results obtained in lungs were, on the other hand, unexpected.

[3] = Tissue distribution after single gavage in C57BL/6 mice (LC-MS); format: in vivo; settings: for bioavailability / drug levels in organs (in words): compared with CDDO-Im 1; for Compound Concentration Mean ± SE, Kidney / Compound Concentration Mean ± SE, Liver / Compound Concentration Mean ± SE, Lungs / Compound Concentration Mean ± SE, Pancreas / Compound Concentration Mean ± SE, Plasma / Compound Concentration Mean ± SE, Whole Blood: six hours after single gavage with 1 μmole
Protocol: To determine concentrations of the CDDO-Im analogs in various organs, an in vivo evaluation was conducted in C57BL/6 mice. Six hours after a single gavage with 1 μmole of compound, the mice were sacrificed and the tissues were collected.

U937 cells = assay: Apoptosis in U937 cells (annexin V staining); format: cell-based; settings: U937 cells treated for 48 hours
NQO1 = assay: Induction of NQO1 mRNA in mouse liver, kidney and lung (real-time PCR); format: in vivo, mice
Source text: as §1
Because HO-1 is regulated by transcription factors in addition to Nrf2 (Alam, et al. (1999) J. Biol. Chem. 274:26071-8; Kensler, et al. (2007) Ann. Rev. Pharmacol. Toxicol. 47:89-116), induction of the prototypical Nrf2 target gene NQO1 was also examined.

[4] = 30 nM, compared with CDDO-Im and CDDO-3P-Im
[5] = six hours after gavage with 1 μmole
[6] = six hours after gavage with 1 μmole, read-out: concentration in the pancreas
[7] = 30 nM, 4 days of treatment, U937 cells

Structure (SMILES)	percent of starting material remaining in plasma ([1]; 37° C.)	stability in human plasma (in words) ([1]; 37° C.)	activity to induce differentiation of U937 cells (in words) (U937 leukemia cell line; [4])	activity to induce differentiation of U937 cells (in words) (U937 leukemia cell line; 100 nM)	IC50 [2] [nM]	HO-1 level relative to CDDO-Im (HO-1; six hours after gavage)	HO-1 mRNA fold induction compared to the vehicle control (HO-1) [fold]	bioavailability / drug levels in organs (in words) [3]	concentration in the liver [3, 5] [nM]	drug levels in the lungs [3, 5]	concentration at 6 h [3, 6] [nM]	Compound Concentration Mean ± SE, Kidney [3] [µmol/kg]	Compound Concentration Mean ± SE, Liver [3] [µmol/kg]	Compound Concentration Mean ± SE, Lungs [3] [µmol/kg]	Compound Concentration Mean ± SE, Pancreas [3] [µmol/kg]	Compound Concentration Mean ± SE, Plasma [3] [µmol/kg]	Compound Concentration Mean ± SE, Whole Blood [3] [µmol/kg]	induction of CD11b expression compared to the DMSO-treated cells (U937 leukemia cell line; [7]) [fold]	cell death in the differentiation assay (U937 leukemia cell line; 100 nM)	annexin V staining, a marker of early apoptosis (U937 cells)	also measured
CC1(C)CCC2(C(=O)n3cnc(-c4ccccn4)c3)CCC3(C)C(C(=O)C=C4C5(C)C=C(C#N)C(=O)C(C)(C)C5CCC43C)C2C1 (stereo not drawn) [CDDO-2P-Im 4]	more than 85%	the most stable analog	less active	enhanced the activity	5.8 ± 1.1	about 3 times	15.2	better than for CDDO-Im 1	12000 to 15000	greater than 2.5 μM	3500	3.70 ± 0.55	14.9 ± 2.58	2.63 ± 0.41	3.55 ± 0.39	0.52 ± 0.02	0.53 ± 0.02	–	–	–	percent left in plasma ([1]; after 4 hours, 37° C.): more than 50%; induction of CD11b (U937 leukemia cell line; 100 nM, 4 days of treatment, U937 cells): ~4 fold
CC1(C)CCC2(C(=O)n3cnc(-c4cccnc4)c3)CCC3(C)C(C(=O)C=C4C5(C)C=C(C#N)C(=O)C(C)(C)C5CCC43C)C2C1 (stereo not drawn) [CDDO-3P-Im 3]	–	more stable than CDDO-Im	–	–	4.3	about 3 times	13.4	better than for CDDO-Im 1	–	greater than 2.5 μM	2500	1.47 ± 0.24	5.9 ± 0.57	2.49 ± 0.44	2.52 ± 0.24	0.15 ± 0.04	0.16 ± 0.02	~3	induced cell death	increased annexin V staining	–
CC1(C)CCC2(C(=O)n3cnc(-c4ccncc4)c3)CCC3(C)C(C(=O)C=C4C5(C)C=C(C#N)C(=O)C(C)(C)C5CCC43C)C2C1 (stereo not drawn) [CDDO-4P-Im 5]	42%	more stable than CDDO-Im	less active	enhanced the activity	9 ± 0.6	–	–	–	–	–	–	0.35 ± 0.06	2.8 ± 0.47	0.17 ± 0.05	0.30 ± 0.04	0.03 ± 0.01	0.04 ± 0.1	–	–	–	HO-1 induction (in words) (HO-1): less potent than CDDO-Im; HO-1 transcript level relative to CDDO-Im or any of the other compounds (HO-1; lungs, six hours after gavage): about 3 times
CC1(C)CCC2(C(=O)n3ccnc3)CCC3(C)C(C(=O)C=C4C5(C)C=C(C#N)C(=O)C(C)(C)C5CCC43C)C2C1 (stereo not drawn) [CDDO-Im 1, 1-(2-cyano-3,12-dioxooleana-1,9(11)-dien-28-oyl) imidazole, reference compound]	–	rapidly metabolized	–	–	–	–	–	–	–	–	–	0.24 ± 0.08	1.7 ± 0.32	0.19 ± 0.05	0.31 ± 0.09	0.06 ± 0.02	0.03 ± 0.01	~3	induced cell death	increased annexin V staining	transformation product in human plasma (in words) ([1]; LC-MS, all time points): essentially converted to its parent molecule; percent of compound lost in human plasma ([1]; within 30 minutes, 37° C.): more than 88%; percent of compound lost in human plasma ([1]; within the next 5 hours (6 hour incubation), 37° C.): 98%; rank of NQO1 mRNA induction (in words) (NQO1; liver and kidney): the most potent compound; IC50 ([2]; Mus musculus, RAW264.7): 2 nM; concentration at 6 h ([3]; C57BL/6, mouse, liver, oral, six hours after gavage with 1 μmole, read-out: concentration in the liver): 1700 nM; concentration at 6 h ([3]; C57BL/6, mouse, lung, oral, six hours after gavage with 1 μmole, read-out: drug levels in the lungs): 200 nM; concentration at 6 h ([3]; C57BL/6, mouse, pancreas, oral, six hours after gavage with 1 μmole, read-out: concentration in the pancreas): ~300 nM
CC1(C)CCC2(C(=O)n3cnc(-c4ccccc4)c3)CCC3(C)C(C(=O)C=C4C5(C)C=C(C#N)C(=O)C(C)(C)C5CCC43C)C2C1 (stereo not drawn) [CDDO-Phenyl-Im 2]	–	more stable than CDDO-Im	less active	–	14.7	–	–	better than for CDDO-Im 1	12000 to 15000	–	2000	5.79 ± 0.25	12.2 ± 1.27	1.28 ± 0.17	1.97 ± 0.19	0.12 ± 0.01	0.35 ± 0.03	–	–	–	NQO1 mRNA induction (in words) (NQO1; liver, compared with CDDO-Im): markedly less potent than CDDO-Im; HO-1 induction (in words) (HO-1): markedly less potent; concentration in kidneys [3, 5]: 5800 nM
